In brackets after ≈: the same amount, converted by molar mass.
Key:
[1] = Inhibition of N-terminal 6xHis SUMO-tagged human EED expressed in Escherichia coli BL21 (DE3)/FITC-labeled EZH2 (39 to 63 residues)(unknown origin) interaction incubated for 2 hrs by fluorescence polarization based competitive assay
[2] = test system: K562; assay: Antiproliferative activity against human K562 cells assessed as inhibition of cell proliferation incubated for 48 hrs by MTT assay; format: functional, cell-based; details: K562, 48 h
[3] = biological target: T1, Histone-lysine N-methyltransferase EZH2 (Homo sapiens, UniProt Q15910); assay: Displacement of [3H-SAM] from EZH2 in PRC2 complex (unknown origin) incubated for 1 hr by […] assay
T1 sequence (Q15910 whole entry): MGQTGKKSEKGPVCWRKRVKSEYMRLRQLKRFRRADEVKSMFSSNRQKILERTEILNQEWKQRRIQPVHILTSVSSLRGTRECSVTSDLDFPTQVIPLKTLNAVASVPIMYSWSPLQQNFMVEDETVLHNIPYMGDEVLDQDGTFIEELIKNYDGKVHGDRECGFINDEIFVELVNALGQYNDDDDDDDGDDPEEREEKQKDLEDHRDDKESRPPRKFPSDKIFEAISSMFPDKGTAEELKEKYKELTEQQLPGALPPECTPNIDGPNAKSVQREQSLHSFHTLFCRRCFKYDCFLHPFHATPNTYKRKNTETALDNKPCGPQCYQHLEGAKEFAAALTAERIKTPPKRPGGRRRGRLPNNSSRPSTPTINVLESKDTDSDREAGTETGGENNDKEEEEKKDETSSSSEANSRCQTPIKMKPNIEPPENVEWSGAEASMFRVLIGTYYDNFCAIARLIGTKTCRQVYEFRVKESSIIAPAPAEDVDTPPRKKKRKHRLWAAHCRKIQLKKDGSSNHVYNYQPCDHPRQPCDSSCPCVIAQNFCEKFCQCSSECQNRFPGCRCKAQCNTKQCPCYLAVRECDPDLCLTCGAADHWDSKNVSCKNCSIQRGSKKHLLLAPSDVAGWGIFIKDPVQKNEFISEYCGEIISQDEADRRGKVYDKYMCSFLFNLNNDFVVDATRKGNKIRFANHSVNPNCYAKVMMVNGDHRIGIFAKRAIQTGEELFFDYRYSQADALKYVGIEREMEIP

[4] = species on record: Homo sapiens; assay: Selectivity ratio of IC50 for EZH1 (unknown origin) to IC50 for EZH2 (unknown origin)
[5] = Solubility of the compound in water; format: physicochemical
[6] = biological target: T1, Histone-lysine N-methyltransferase EZH2; assay: Inhibition of wild-type EZH2 in PRC2 complex (unknown origin) using monomethylated H3K27 as substrate by radiometric assay
[7] = test system: PC-3; assay: Antiproliferative activity against human PC-3 cells assessed as inhibition of cell proliferation incubated for 3 to 7 days followed by replacement of medium containing compound every 3 days by CCK8 assay; format: functional, cell-based
[8] = test system: SK-OV-3; assay: Antiproliferative activity against human SK-OV-3 cells assessed as inhibition of cell proliferation incubated for 3 to 7 days followed by replacement of medium containing compound every 3 days by CCK8 assay; format: functional, cell-based
[9] = Binding affinity to PRC2 (unknown origin) assessed as inhibition constant; set-up: species or system Homo sapiens

## Cc1sc(NC(=O)CCCCC(=O)Nc2sc(C)c(C)c2C(N)=O)c(C(N)=O)c1C
[1]
  IC50: 54.9 µM

## Cc1cc(C)c(CNC(=O)c2c(C)cn(Cc3ccc(C(C(F)(F)F)(C(F)(F)F)C(F)(F)F)cc3)c2C)c(=O)[nH]1
[2]
  IC50: 58.7 µM

## Cc1cc(C)c(CNC(=O)c2cc(C)n(-c3cccc(N4CCCCC4)c3)c2C)c(=O)[nH]1
[3]
  IC50: 1.06 µM
[4]
  Ratio IC50: 10

## CCN(c1cc(-c2ccc(CN3CCN(C)CC3)cc2)cc(C(=O)NCc2c3c(c(C)[nH]c2=O)CCCC3)c1C)C1CCOCC1
[5]; water, read-out: solubility
  solubility: 3 µg/mL (≈ 4.79 µM)

## COc1cc(C)[nH]c(=O)c1CNC(=O)c1cccc2c1cc(C)n2[C@H](C)C1CCOCC1
[6]
  IC50: 0.0005 µM

## CC1=C(CC(=O)NCCc2c[nH]c3ccccc23)C(=O)OC2C(O)=C(O)C=CC12 (stereo unspecified)
[7]
  IC50: 5.39 µM
[8]
  IC50: 7.86 µM

## CCN(c1cc(-c2ccc(CN3CCOCC3)cc2)cc(C(=O)NCc2c(C)cc(C)[nH]c2=O)c1C)C1CCOCC1 [TAZEMETOSTAT]
[5]; buffer
  solubility: 185.3 µg/mL (≈ 324 µM)
[2]
  IC50: 59.2 µM

## Cc1cc(C)c(CNC(=O)c2cc(C)n(-c3cccc(N4CCOCC4)c3)c2C)c(=O)[nH]1
[3]
  IC50: 4.06 µM
[4]
  Ratio IC50: 10

## CC[C@H](C)n1cc(C)c2c(C(=O)NCc3c(C)cc(C)[nH]c3=O)cc(-c3ccc(N4CCNCC4)nc3)cc21 [GSK2816126]
[7]
  IC50: 10 µM
[8]
  IC50: 10.5 µM

## Cc1cc(C)c(CNC(=O)c2cc(-c3ccc(CN4CCOCC4)cc3)cc3c2cnn3C2CCCC2)c(=O)[nH]1
[9]
  Ki: 0.024 µM

## Cc1ccc(C(C2=C(O)CC(C)(C)CC2=O)C2C(=O)CC(C)(C)CC2=O)s1 (stereo unspecified)
[1]
  IC50: 63.9 µM
